Values quoted from earlier work in patent US4486419A, “5,2',3',4',4",6"-Hexadeoxykanamycin and its 1-N-acylated derivative” (Zaidan Hojin Biseibutsu Kagaku Kenkyu Kai, priority 1982, dated 1984).

Test system: dibekacin-resistant bacteria
Conditions: background, U.S. Pat. No. 4,107,424; cited from earlier work

SMILES: NCC[C@H](O)C(=O)N[C@@H]1C[C@H](N)[C@@H](O[C@H]2O[C@H](CN)CC[C@H]2N)[C@H](O)[C@H]1O[C@H]1O[C@H](CO)[C@@H](O)[C@H](N)[C@H]1O [Habekacin, 1-N-[(S)-4-amino-2-hydroxybutyryl] dibekacin]
- activity against dibekacin-resistant bacteria: active against dibekacin-resistant bacteria
